According to US7829665B2 (priority 2005, dated 2010):
Like-named read-outs stand apart in the source and are kept apart here.

Experiments:
[1] = molecular target: T1, full-length NS3/NS4A-2 (HCV NS3 protease) (Hepatitis C virus genotype 1a, UniProt P27958); assay: NS3-NS4 protease assay / NS3 inhibition assay (RETS1 substrate, fluorescence kinetic read); assay type: biochemical
T1 construct: Recombinant E. coli or Baculovirus full-length NS3 was diluted to 3.33 μM with assay buffer; made in house; host or cells: E. coli or baculovirus (BV) expression system
T1 sequence (P27958 1027-1657): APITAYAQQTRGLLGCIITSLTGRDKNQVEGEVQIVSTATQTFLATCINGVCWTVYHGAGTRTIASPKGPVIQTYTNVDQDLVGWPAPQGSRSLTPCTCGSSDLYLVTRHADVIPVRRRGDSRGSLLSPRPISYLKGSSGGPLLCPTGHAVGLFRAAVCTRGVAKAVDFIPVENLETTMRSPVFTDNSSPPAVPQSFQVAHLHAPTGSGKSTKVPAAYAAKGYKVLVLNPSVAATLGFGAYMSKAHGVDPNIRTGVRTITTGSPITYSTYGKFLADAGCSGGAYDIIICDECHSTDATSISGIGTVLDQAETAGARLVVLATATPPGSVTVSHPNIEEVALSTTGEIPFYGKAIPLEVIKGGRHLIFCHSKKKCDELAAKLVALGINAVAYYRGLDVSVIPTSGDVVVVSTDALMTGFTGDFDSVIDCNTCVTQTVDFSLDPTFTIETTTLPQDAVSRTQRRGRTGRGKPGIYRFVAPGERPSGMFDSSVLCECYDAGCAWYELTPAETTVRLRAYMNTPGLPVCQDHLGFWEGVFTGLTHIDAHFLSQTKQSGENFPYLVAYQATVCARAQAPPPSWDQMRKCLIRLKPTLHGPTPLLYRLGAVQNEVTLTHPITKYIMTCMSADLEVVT
Method in brief: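 Full-length NS3 from E. coli (2 nM in assay) or baculovirus (3 nM) was precomplexed with excess NS4A-2 peptide, then preincubated 10 min at room temperature with serially diluted compounds starting at 50 microM. Reaction was started with RETS1 substrate at 8 μM before addition and read kinetically for 30 min (ex 335/em 495 nm). Four-parameter IC50s were converted to Ki by Cheng-Prusoff using Km 2.03 μM (E. coli) or 1.74 μM (BV).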

[2] = tested on: HCV sub-genomic replicon in GS4.3 cells (HuH-7 hepatoma cells); assay: Quantitation by ELISA of Neomycin phosphotransferase II (NPTII) in the HCV sub-genomic replicon, GS4.3; assay type: cell-based, hepatitis C virus
Method in brief: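 HuH-7 GS4.3 cells carrying HCV sub-genomic replicon 1377/NS3-3′, treated 72 h at 37 °C without G418 with 3-fold dilutions from 10 μM to 56 pM (1% DMSO). NPTII in cell lysates measured by direct ELISA with TMB readout at 450 nm. EC50 from 4-parameter fit of percent DMSO-control signal.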

[3] = recombinant E. coli or Baculovirus full-length NS3 with NS4A-2, read-out: NS3-NS4 IC50
[4] = Hepatitis C virus, Huh-7, GS4.3 cells, 72 h incubation, NPTII ELISA, read-out: Replicon EC50

Compound	IC50 [1, 3] [nM]	EC50 [2, 4] [µM]	EC50 ([2]; Table 26, read-out: EC50) [µM]	EC50 ([2]; Hepatitis C virus, Huh-7, Table 26, read-out: EC50) [µM]	IC50 [1] [nM]
CC(C)(C)OC(=O)N[C@H]1CCCC(F)(F)C/C=C\[C@@H]2C[C@@]2(C(=O)O)NC(=O)[C@@H]2C[C@@H](OC(=O)N3Cc4cccc(F)c4C3)CN2C1=O [Compound 1006, (2R,6S,13aS,14aR,16aS,Z)-6-(tert-butoxycarbonylamino)-9,9-difluoro-2-(4-fluoroisoindoline-2-carbonyloxy)-5,16-dioxo-1,2,3,5,6,7,8,9,10,11,13a,14,14a,15,16,16a-hexadecahydrocyclopropa(e)prrolo[1,2-a][1,4]diazacyclopentadecine-14a-carboxylic acid]	< 100	< 10			
CN(C)c1c(N[C@H]2CCCCC/C=C\[C@@H]3C[C@@]3(C(=O)NS(=O)(=O)C3CC3)NC(=O)[C@@H]3C[C@@H](OC(=O)N4Cc5cccc(F)c5C4)CN3C2=O)c(=O)c1=O [Compound 185]	< 100	< 10			
CC(C)(C)OC(=O)N[C@H]1CCCCC/C=C\[C@@H]2C[C@@]2(C(=O)O)NC(=O)[C@@H]2C[C@@H](OC(=O)N3Cc4ccc(OCCn5cccn5)cc4C3)CN2C1=O [Compound 130]	< 100	< 10			
CC(C)(C)OC(=O)N[C@H]1CCCCC/C=C\[C@@H]2C[C@@]2(C(=O)Nc2cc(C3CC3)[nH]n2)NC(=O)[C@@H]2C[C@@H](OC(=O)N3Cc4cccc(F)c4C3)CN2C1=O [Compound 630]	< 1000	< 10			
CN(C)CCOc1ccc2c(c1)CN(C(=O)O[C@@H]1C[C@H]3C(=O)N[C@]4(C(=O)O)C[C@H]4/C=C\CCCCC[C@H](NC(=O)OC4CCCC4)C(=O)N3C1)C2 [Compound 133]	< 100	< 10			
CC(C)(C)C(=O)N[C@H]1CCCCC/C=C\[C@@H]2C[C@@]2(C(=O)NC#N)NC(=O)C2C[C@@H](OC(=O)N3Cc4cccc(F)c4C3)CN2C1=O (stereo partly drawn) [Compound 640]	< 100	> 10			
(1S,4R,6S,14S) tert-butyl 4-Cyclopropanesulfonylaminocarbonyl-2,15-dioxo-3,16-diaza-tricyclo[14.3.0.0^4,6]nonadec-7-ene-14-yl carbamate [Compound 2137]	> 10000		> 10		
CC(CO)(CO)C(=O)N[C@H]1CCCCC/C=C\[C@@H]2C[C@@]2(C(=O)NS(=O)(=O)C2CC2)NC(=O)[C@@H]2C[C@@H](OC(=O)N3Cc4cccc(F)c4C3)CN2C1=O [Compound 253]	< 100	< 10			
CC(C)(C)OC(=O)N[C@H]1CCNCC/C=C\[C@@H]2C[C@@]2(C(=O)NS(=O)(=O)C2CC2)NC(=O)[C@@H]2C[C@@H](OC(=O)N3Cc4cccc(F)c4C3)CN2C1=O [Compound 1031]	< 100	< 1			
COCC1(S(=O)(=O)NC(=O)[C@@]23C[C@H]2/C=C\CCCCC[C@H](NC(=O)OC2CCCC2)C(=O)N2C[C@H](OC(=O)N4Cc5cccc(F)c5C4)C[C@H]2C(=O)N3)CC1 [Compound 171]	< 100	< 0.1			
CN(Cc1ccccc1)S(=O)(=O)NC(=O)[C@@]12C[C@H]1/C=C\CCCCC[C@H](NC(=O)OC(C)(C)C)C(=O)N1C[C@H](OC(=O)N3Cc4cccc(F)c4C3)C[C@H]1C(=O)N2 [Compound 210]	< 100	< 0.1			
O=C(Cc1ccc(C(F)(F)F)cc1)N[C@H]1CCCCC/C=C\[C@@H]2C[C@@]2(C(=O)NS(=O)(=O)C2CC2)NC(=O)C2CCCN2C1=O (stereo partly drawn) [Compound 2142]	< 10000			> 10	
O=C(N[C@H]1CCCCC/C=C\[C@@H]2C[C@@]2(C(=O)NS(=O)(=O)N2CCC(F)(F)C2)NC(=O)[C@@H]2C[C@@H](OC(=O)N3Cc4cccc(F)c4C3)CN2C1=O)OC1CCCC1 [Compound 225]	< 100	< 0.1			
CC(C)(C)OC(=O)N[C@H]1CCCCC/C=C\[C@@H]2C[C@@]2(C(=O)NS(=O)(=O)NC2CCCC2)NC(=O)[C@@H]2C[C@@H](OC(=O)N3Cc4cccc(Cl)c4C3)CN2C1=O [Compound 212]	< 100	< 1			
CC(C)(C)OC(=O)N[C@H]1CCCCC/C=C\[C@@H]2C[C@@]2(C(=O)O)NC(=O)[C@@H]2C[C@@H](OC(=O)Nc3nc4ccccc4s3)CN2C1=O [Compound 139]	< 1000	> 10			
CN(C)S(=O)(=O)NC(=O)[C@@]12C[C@H]1/C=C\CCCCC[C@H](N)C(=O)N1C[C@H](OC(=O)N3Cc4ccccc4C3)C[C@H]1C(=O)N2 [Compound 202]	< 100	< 10			
CC(C)(C)OC(=O)N[C@H]1CCCCC/C=C\[C@@H]2C[C@@]2(C(=O)NS(=O)(=O)C2CC2)NC(=O)[C@@H]2C[C@@H](OC(=O)N3Cc4cccc(Br)c4C3)CN2C1=O [Compound 160]	< 100	< 0.1			

Compound	IC50 [1, 3] [nM]	EC50 [2, 4] [µM]	EC50 ([2]; Table 26, read-out: EC50) [µM]	EC50 ([2]; Hepatitis C virus, Huh-7, Table 26, read-out: EC50) [µM]	IC50 [1] [nM]
O=C1N[C@]2(C(=O)NS(=O)(=O)C3CC3)C[C@H]2/C=C\CCCCC[C@H](NC2CCCC2)C(=O)N2C[C@H](OC(=O)N3Cc4cccc(F)c4C3)C[C@@H]12 [Compound 919]	< 100	< 10			
CC(C)(C)OC(=O)N[C@H]1CCCCC/C=C\[C@@H]2C[C@@]2(C(=O)NS(=O)(=O)N2CCCC2)NC(=O)[C@@H]2C[C@@H](OC(=O)N3Cc4cccc(Cl)c4C3)CN2C1=O [Compound 214]	< 100	< 0.1			
O=C(N[C@H]1CCCCC/C=C\[C@@H]2C[C@@]2(C(=O)NS(=O)(=O)N(CC(F)(F)F)CC(F)(F)F)NC(=O)[C@@H]2C[C@@H](OC(=O)N3Cc4cccc(F)c4C3)CN2C1=O)OC1CCCC1 [Compound 224]	< 1000	< 10			
CC(C)(C)OC(=O)N[C@H]1CCC(O)CC/C=C\[C@@H]2C[C@@]2(C(=O)O)NC(=O)[C@@H]2C[C@@H](OC(=O)N3Cc4cccc(F)c4C3)CN2C1=O (stereo partly drawn) [Compound 1017]	< 1000	> 10			
O=C1N[C@]2(C(=O)NS(=O)(=O)C3CC3)C[C@H]2/C=C\CCCCC[C@H](NCc2ccc(F)c(F)c2)C(=O)N2C[C@H](OC(=O)N3Cc4cccc(F)c4C3)C[C@@H]12 [Compound 904]	< 100	< 0.1			
C=CCC1(S(=O)(=O)NC(=O)[C@@]23C[C@H]2/C=C\CCCCC[C@H](NC(=O)OC(C)(C)C)C(=O)N2C[C@H](OC(=O)N4Cc5ccccc5C4)C[C@H]2C(=O)N3)CC1 [Compound 105]	< 100	< 0.1			
CC(C)(C)OC(=O)N[C@H]1CCCCC/C=C\[C@@H]2C[C@@]2(C(=O)NCc2cccc(C(=O)O)c2)NC(=O)[C@@H]2C[C@@H](OC(=O)N3Cc4cccc(F)c4C3)CN2C1=O [Compound 617]	< 100	> 10			
O=C1N[C@]2(C(=O)O)C[C@H]2/C=C\CCCCC[C@H](Nc2c(N3CCC3)c(=O)c2=O)C(=O)N2C[C@H](OC(=O)N3Cc4cccc(F)c4C3)C[C@@H]12 [Compound 238]	< 100	< 10			
CC(C)NS(=O)(=O)NC(=O)[C@@]12C[C@H]1/C=C\CCCCC[C@H](NC(=O)OC1CCCC1)C(=O)N1C[C@H](OC(=O)N3Cc4cccc(F)c4C3)C[C@H]1C(=O)N2 [Compound 218]	< 100	< 0.1			
CC(C)(C)OC(=O)N[C@H]1CCCOCCC[C@@H]2C[C@@]2(C(=O)NS(=O)(=O)C2CC2)NC(=O)[C@@H]2C[C@@H](OC(=O)N3Cc4cccc(F)c4C3)CN2C1=O [Compound 1023, (2R,6S,13aR,14aR,16aS)-6-(tert-butoxycarbonylamino)-14a-(cyclopropylsulfonylcarbamoyl)-5,16-dioxohexadecahydro-1H-cyclopropa(e)pyrrolo[2,1-i][1,7,10]oxadiazacyclopentadecin-2-yl 4-fluoroisoindoline-2-carboxylate]		< 1			< 100
Cc1cc(CN[C@H]2CCCCC/C=C\[C@@H]3C[C@@]3(C(=O)NS(=O)(=O)C3CC3)NC(=O)[C@@H]3C[C@@H](OC(=O)N4Cc5cccc(F)c5C4)CN3C2=O)oc1C [Compound 915]	< 100	< 0.1			
CC(C)(C)OC(=O)N[C@H]1CCCCC/C=C\[C@@H]2C[C@@]2(C(=O)Nc2n[nH]c(C3CC3)n2)NC(=O)[C@@H]2C[C@@H](OC(=O)N3Cc4cccc(F)c4C3)CN2C1=O [Compound 635]	< 100	< 1			
CN(C)S(=O)(=O)NC(=O)[C@@]12C[C@H]1/C=C\CCC(F)(F)CC[C@H](NC(=O)OC(C)(C)C)C(=O)N1C[C@H](OC(=O)N3Cc4cccc(F)c4C3)C[C@H]1C(=O)N2 [Compound 1015]	< 100	< 0.1			
N[C@H]1CCCCC/C=C\[C@@H]2C[C@@]2(C(=O)NS(=O)(=O)C2CC2)NC(=O)[C@@H]2C[C@@H](OC(=O)N3Cc4c(Cl)ccc(Cl)c4C3)CN2C1=O [Compound 156]		< 1			< 100
CC(C)(C)OC(=O)N[C@H]1CCCCC/C=C\[C@@H]2C[C@@]2(C(=O)NS(=O)(=O)C2CC2)NC(=O)C2Cc3cc(Oc4cccc(Cl)c4)ccc3CN2C1=O (stereo partly drawn) [Compound 2007, tert-Butyl (1aS,9S,19aR,Z)-15-(3-chlorophenoxy)-19a-(cyclopropylsulfonylcarbamoyl)-10,18-dioxo-1a,4,5,6,7,8,9,10,12,17,17a,18,19,19a-tetradecahydro-1H-11,14-diaza-bicyclo[13.1.0]hexadeca-1(15), 2-dieno[11,12-b]isoquinolin-9-ylcarbamate]	< 1000	< 10			
CCOC(=O)[C@@]12C[C@H]1/C=C\CCCCC[C@H](N)C(=O)N1C[C@H](OC(=O)N3Cc4ccccc4C3)C[C@H]1C(=O)N2 [Compound 121]	< 1000	< 1			
